Patent publication US20090239757A1, “Control Sequences Responding to AMP and Uses Thereof” (priority 2004, published 2009)
Residues, ends and D or L forms follow the SMILES beside them.

Legend:
[1] = tested on: Gram-positive and Gram-negative bacteria; details: U.S. Pat. No. 6,492,328; cited from earlier work
E. coli = assay: growth and killing of E. coli on induced expression of novispirin (Suicide Expression System); format: cell-based, Escherichia coli
Description: In the examples below the method of the invention has been illustrated using novispirin as the antimicrobial peptide and E. coli as the host cell. To assess the sustained physiological response of E. coli to novispirin, an arabinose induction system was used to make E. coli produce novispirin at a sub-lethal rate. […] These categories comprise particularly genes related to membrane dysfunction, heat shock, phage shock and antimicrobial peptide defense.
A plasmid was constructed to investigate the transcriptional response of E. coli upon expressing Novispirin G10 in a Suicide Expression System (SES) setup. The SES takes advantage of conditionally expressing antimicrobial peptides in a sensitive host. The degree of inhibition in the host reflects the potency of the antimicrobial peptide (AMP) (WO200073433). In the current setup, the AMP is exported to the periplasmic space where it interacts with the inner and/or outer membrane of E. coli.
In order to obtain a transcriptional profile of E. coli expressing Novispirin G10, 2×10 mL sterile LB media (10 g/L Bactotryptone, 5 g/L Yeast extract, and 10 g/L NaCl) containing 100 mg/L ampicillin was inoculated with E. coli TOP10 harbouring pDRS5-novispirin and pBAD gIII A, respectively. These cultures were grown overnight at 37° C. at 180 rpm. […]

Compound: CC[C@H](C)[C@H](NC(=O)CNC(=O)[C@H](CCCCN)NC(=O)[C@H](CCCNC(=N)N)NC(=O)[C@@H](NC(=O)[C@@H](NC(=O)[C@H](CCCNC(=N)N)NC(=O)[C@H](CCCNC(=N)N)NC(=O)[C@H](CC(C)C)NC(=O)[C@H](CC(N)=O)NC(=O)[C@@H](N)CCCCN)[C@@H](C)CC)[C@@H](C)CC)C(=O)N[C@@H](Cc1c[nH]cn1)C(=O)N[C@H](C(=O)N[C@H](C(=O)N[C@@H](CCCCN)C(=O)N[C@@H](CCCCN)C(=O)N[C@@H](Cc1ccc(O)cc1)C(=O)NCC(=O)O)[C@@H](C)CC)[C@@H](C)CC [Novispirin G10] (H-KNLRRIIRKGIHIIKKYG-OH; N-terminus assumed)
- antimicrobial activity [1]: activity against both Gram-positive and Gram-negative bacteria
- growth rate on induction of novispirin expression (E. coli; arabinose induction, sub-lethal rate, growth was not completely inhibited): reduced the growth rate significantly
- inhibition and killing of the host when the AMP is expressed (E. coli; expressed and exported to the periplasmic space, as opposed to adding purified peptide to a cell culture): prolong the inhibition and delay killing
